In patent US5639773A, “Ocular hypotensive agent” (priority 1993, dated 1997):
Like-named read-outs stand apart in the source and are kept apart here.

Key:
[1] = Acute toxicity test, rats; conditions: rat, in vivo; single oral administration, 5-week-old Jcl:Wistar rats (males, females)
Method: (§1) The LD50 of compound 1 exceeded 2,000 mg/kg, as of single oral administration, in 4-week-old Jcl:ICR mice (males, females) and 5-week-old Jcl:Wistar rats (males, females).

[2] = test system: anterior ocular segment of rabbits; conditions: rabbit, in vivo
Method: (§2) Male Japanese albino and pigmented rabbits having no anterior ocular abnormalities were used. One eye received 50 μl of the test drug, the other eye 50 μl of physiological saline as a control. Changes over time in ocular tension were measured. Ocular tension was measured for both eyes using a Pneumatonograph (produced by Alcon) before and 30 minutes and/or 1 hour after instillation. The test drug was (±)-1-(cyclohexyloxycarbonyloxy)ethyl 2-ethoxy-1-[[2'-(1H-tetrazol-5-yl)biphenyl-4-yl]methyl]-1H-benzimidazole-7-carboxylate (hereinafter referred to as Compound 1) as suspended in physiological saline or 0.1 w/v % polysorbate 80 to concentrations of 0.1, 0.5 and 1.0 w/v %. Also performed periodically were macroscopic observation of the anterior ocular segment and measurement of pupil diameter.

[3] = test system: Japanese albino rabbits; experiment: Action for lowering intraocular pressure in Japanese albino rabbits (Pneumatonograph); assay type: in vivo, rabbit; conditions: for Intraocular Pressure 30 minutes after instillation / Intraocular Pressure before instillation: 50 μl; for Intraocular Pressure 30 minutes after instillation / Intraocular Pressure before instillation / Intraocular Pressure difference: n=5; for Intraocular Pressure before instillation: baseline; for Intraocular Pressure difference: 30 minutes after vs before instillation
Method: (§3) The action for lowering intraocular pressure in rabbits
as §2

[4] = Acute toxicity test, mice; conditions: mouse, in vivo; single oral administration, 4-week-old Jcl:ICR mice (males, females)
Method: as §1

[5] = test system: pigmented rabbits; experiment: Action for lowering intraocular pressure in pigmented rabbits (Pneumatonograph); assay type: in vivo, rabbit; conditions: for Intraocular Pressure 1 hour after instillation / Intraocular Pressure 30 minutes after instillation / Intraocular Pressure before instillation: 50 μl; for Intraocular Pressure before instillation: baseline; for ocular tension (result in words): suspended in 0.1 w/v % polysorbate 80
Method: as §3, §2

[6] = test system: anterior ocular segment of rabbits; conditions: rabbit, in vivo; remark: listed apart in the source
Method: as §2

[7] = test system: pigmented rabbits; conditions: rabbit, in vivo
Method: as §2

[8] = test system: Japanese albino rabbits; conditions: rabbit, in vivo
Method: as §2

[9] = 0.1 w/v %, suspended in physiological saline
[10] = 0.5 w/v %, suspended in physiological saline
[11] = 0.1 w/v %, suspended in 0.1 w/v % polysorbate 80, n=6
[12] = 1.0 w/v %, suspended in 0.1 w/v % polysorbate 80, n=7

## CCOc1nc2cccc(C(=O)OC(C)OC(=O)OC3CCCCC3)c2n1Cc1ccc(-c2ccccc2-c2nnn[nH]2)cc1 (racemic) [Compound 1, (±)-1-(cyclohexyloxycarbonyloxy)ethyl 2-ethoxy-1-[[2'-(1H-tetrazol-5-yl)biphenyl-4-yl]methyl]-1H-benzimidazole-7-carboxylate]
[1]
  LD50: > 2000 mg/kg
[2]
  macroscopic abnormalities in the anterior ocular segment: no macroscopic abnormalities were noted
[3]; [9]
  Intraocular Pressure 30 minutes after instillation: 16.3 ± 1.16 mmHg
  Intraocular Pressure before instillation: 17.8 ± 0.80 mmHg
[3]; 0.1 w/v %
  Intraocular Pressure difference: -1.5 mmHg
[3]; [10]
  Intraocular Pressure 30 minutes after instillation: 16.0 ± 0.76 mmHg
  Intraocular Pressure before instillation: 18.2 ± 0.60 mmHg
[3]; 0.5 w/v %
  Intraocular Pressure difference: -2.2 mmHg
[3]; 1.0 w/v %, suspended in physiological saline, *p < 0.05 vs before instillation
  Intraocular Pressure 30 minutes after instillation: 15.0 ± 0.47 mmHg
[3]; 1.0 w/v %, suspended in physiological saline
  Intraocular Pressure before instillation: 18.7 ± 0.44 mmHg
[3]; 1.0 w/v %
  Intraocular Pressure difference: -3.7 mmHg
[3]; by 30 minutes after instillation, 0.1, 0.5 and 1.0 w/v %, suspended in physiological saline
  ocular tension (result in words): fell dose-dependently
[4]
  LD50: > 2000 mg/kg
[5]; [11]
  Intraocular Pressure 1 hour after instillation: 23.6 ± 0.33 mmHg
  Intraocular Pressure before instillation: 24.3 ± 0.25 mmHg
[5]; 0.1 w/v %, suspended in 0.1 w/v % polysorbate 80, n=6, *p < 0.05 vs before instillation
  Intraocular Pressure 30 minutes after instillation: 22.0 ± 0.39 mmHg
[5]; 0.1 w/v %, 30 minutes after instillation
  ocular tension (result in words): fell greatly
[5]; [12]
  Intraocular Pressure 30 minutes after instillation: 21.9 ± 0.81 mmHg
  Intraocular Pressure before instillation: 24.0 ± 0.29 mmHg
[5]; 1.0 w/v %, suspended in 0.1 w/v % polysorbate 80, n=7, **p < 0.001 vs before instillation
  Intraocular Pressure 1 hour after instillation: 21.4 ± 0.43 mmHg
[5]; 1.0 w/v %, one hour after instillation
  ocular tension (result in words): fell greatly
[6]
  macroscopic abnormalities in the anterior ocular segment: no macroscopic abnormalities were noted
[7]
  change in pupil diameter: Nor was there any change in pupil diameter
[8]
  change in pupil diameter: Nor was there any change in pupil diameter
